This is an account of results in patent publication US20240209028A1, “CNP COMPOUNDS” (priority 2022, published 2024).

Each structure is given as a SMILES string. Starred links: 1 amine or outer side, 2 acyl side, 3 side chain; linkers in the order of their positions; H or OH if unused. Positions of bridges follow the written chain, without caps; N, C: chain ends. Residues, ends and D or L forms follow the SMILES beside them. *: point of attachment. C18 diacid = O=C(O)CCCCCCCCCCCCCCCCC(=O)*; γGlu = O=C(O)[C@H](CCC(=O)[*:2])N[*:1]; X1 = O=C(CCCCCCCCCCCCCCCCc1nnn[nH]1)*; AEEA = NCCOCCOCC(=O)O

In one experiment the target is T1, human natriuretic peptide receptor 2 (hNPR2) (Homo sapiens, UniProt P20594).
T1 construct: expressed in transfected cells; host or cells: HEK293 (ATCC CRL-1573), clone 35, co-transfected with pGloSensor-42F
T1 sequence (P20594 23-1047): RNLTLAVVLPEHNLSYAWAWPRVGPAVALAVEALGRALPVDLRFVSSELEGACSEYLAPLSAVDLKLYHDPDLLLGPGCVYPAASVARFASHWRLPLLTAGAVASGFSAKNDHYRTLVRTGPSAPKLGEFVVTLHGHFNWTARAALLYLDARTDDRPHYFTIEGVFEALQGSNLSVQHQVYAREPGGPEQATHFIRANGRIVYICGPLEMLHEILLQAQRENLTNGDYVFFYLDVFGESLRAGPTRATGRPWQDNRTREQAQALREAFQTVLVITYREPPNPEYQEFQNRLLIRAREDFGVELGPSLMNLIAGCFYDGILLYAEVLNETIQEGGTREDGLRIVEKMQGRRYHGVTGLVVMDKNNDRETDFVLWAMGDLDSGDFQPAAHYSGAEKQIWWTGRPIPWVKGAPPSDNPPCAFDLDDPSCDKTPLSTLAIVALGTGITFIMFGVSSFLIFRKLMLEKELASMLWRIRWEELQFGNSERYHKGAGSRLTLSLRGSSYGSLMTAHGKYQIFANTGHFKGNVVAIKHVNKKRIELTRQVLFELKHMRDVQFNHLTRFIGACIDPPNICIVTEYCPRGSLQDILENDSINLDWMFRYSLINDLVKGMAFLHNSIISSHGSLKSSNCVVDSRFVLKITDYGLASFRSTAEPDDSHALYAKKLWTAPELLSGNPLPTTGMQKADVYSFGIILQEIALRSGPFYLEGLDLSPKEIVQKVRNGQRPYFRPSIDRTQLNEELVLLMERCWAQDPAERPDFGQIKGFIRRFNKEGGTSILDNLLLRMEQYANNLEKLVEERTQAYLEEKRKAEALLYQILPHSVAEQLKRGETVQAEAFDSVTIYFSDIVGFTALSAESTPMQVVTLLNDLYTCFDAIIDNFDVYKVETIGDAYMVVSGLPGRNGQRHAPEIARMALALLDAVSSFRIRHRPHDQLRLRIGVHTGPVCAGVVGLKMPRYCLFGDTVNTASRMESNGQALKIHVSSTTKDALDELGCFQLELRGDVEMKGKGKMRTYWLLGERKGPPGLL
Nature of the experiment: In vitro hNPR2 activity assay (cGMP GloSensor reporter, HEK293). The format is cell-based. Particulars: 0% HSA; HEK293-hNPR2/GloSensor cells. A digest of the protocol:
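Potency is the EC50 from a four-parameter logistic fit, also expressed relative to the in-plate CNP22 control (×100), with at least two replicates. Compounds (ten concentrations, […], HSA-free diluent with 1% OVA, 0.01% Tween20) were incubated 30 min at 37 °C on HEK293 cells co-expressing hNPR2 and a GloSensor cGMP luciferase. Luminescence detected with Bright-Glo.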
The compound `CC[C@H](C)[C@@H]1NC(=O)[C@H](CCCNC(=N)N)NC(=O)[C@H](CCC(=O)O)NC(=O)[C@H](CC(C)C)NC(=O)[C@@H]2CCCN2C(=O)[C@H](CC(C)C)NC(=O)CNC(=O)[C@H](Cc2ccccc2)NC(=O)[C@@H](NC(=O)CNC(=O)[C@H](CO)NC(=O)[C@H](CO)NC(=O)[C@H](CC(C)C)NC(=O)CNC(=O)[C@H](CCCCN)NC(=O)[C@H](CCCCN)NC(=O)[C@H](CCC(N)=O)NC(=O)[C@H](C)NC(=O)CNC(=O)[C@H](CCCCN)NC(=O)[C@H](Cc2ccc(O)cc2)NC(=O)[C@H](CCCCN)NC(=O)[C@H](CCCNC(=N)N)NC(=O)[C@H](C)NC(=O)[C@H](CCC(N)=O)NC(=O)[C@@H]2CCCN2C(=O)[C@H](Cc2c[nH]cn2)NC(=O)[C@H](CCC(=O)O)NC(=O)[C@H](CCC(N)=O)NC(=O)CC[C@H](NC(=O)CC[C@H](NC(=O)CC[C@H](NC(=O)CC[C@H](NC(=O)CCCCCCCCCCCCCCCCC(=O)O)C(=O)O)C(=O)O)C(=O)O)C(=O)O)CSSC[C@@H](C(=O)O)NC(=O)CNC(=O)[C@H](CC(C)C)NC(=O)CNC(=O)[C@H](CO)NC(=O)[C@H](CC(C)C)NC(=O)[C@H](CO)NC(=O)CNC1=O` [compound 9483] ({C18 diacid-γGlu-γGlu-γGlu-γGlu}-QEHPQARKYKGAQKKGLSSGCFGLPLERIGSLSGLGC-OH; disulfide 21-37) gave an EC50 of 0.3 nM.

The same experiment, now with this note: potency relative to CNP22 (0065).
For the compound `CC[C@H](C)[C@@H]1NC(=O)[C@H](CCCNC(=N)N)NC(=O)[C@H](CC(=O)O)NC(=O)[C@H](CC(C)C)NC(=O)[C@@H]2CCCN2C(=O)[C@H](CC(C)C)NC(=O)CNC(=O)[C@H](Cc2ccccc2)NC(=O)[C@@H](NC(=O)CNC(=O)[C@H](CO)NC(=O)[C@H](CO)NC(=O)[C@H](CC(C)C)NC(=O)CNC(=O)[C@H](CCCCN)NC(=O)[C@H](CCCCN)NC(=O)[C@H](CCC(N)=O)NC(=O)[C@H](C)NC(=O)CNC(=O)[C@H](CCCCN)NC(=O)[C@H](Cc2ccc(O)cc2)NC(=O)COCCOCCNC(=O)COCCOCCNC(=O)COCCOCCNC(=O)CC[C@H](NC(=O)CC[C@H](NC(=O)CCCCCCCCCCCCCCCCC(=O)O)C(=O)O)C(=O)O)CSSC[C@@H](C(=O)O)NC(=O)CNC(=O)[C@H](CC(C)C)NC(=O)CNC(=O)[C@H](CO)NC(=O)[C@H](CC(C)C)NC(=O)[C@H](CO)NC(=O)CNC1=O` [compound 1356] ({C18 diacid-γGlu-γGlu-AEEA-AEEA-AEEA}-YKGAQKKGLSSGCFGLPLDRIGSLSGLGC-OH; disulfide 13-29; C-terminus assumed), the “hNPR2 0% HSA. [EC50% rel CNP]” value is 22.4%.

As for `CC[C@H](C)[C@@H]1NC(=O)[C@H](CCCNC(=N)N)NC(=O)[C@H](CC(=O)O)NC(=O)[C@H](CC(C)C)NC(=O)[C@@H]2CCCN2C(=O)[C@H](CC(C)C)NC(=O)CNC(=O)[C@H](Cc2ccccc2)NC(=O)[C@@H](NC(=O)CNC(=O)[C@H](CCC(N)=O)NC(=O)[C@H](CO)NC(=O)[C@H](CC(C)C)NC(=O)CNC(=O)[C@H](CO)NC(=O)[C@H](CCCCN)NC(=O)[C@H](CCC(N)=O)NC(=O)[C@H](C)NC(=O)CNC(=O)[C@H](Cc2c[nH]cn2)NC(=O)[C@H](Cc2ccc(O)cc2)NC(=O)[C@H](CCCCN)NC(=O)[C@H](CCCNC(=N)N)NC(=O)[C@H](C)NC(=O)COCCOCCNC(=O)COCCOCCNC(=O)CC[C@H](NC(=O)CC[C@H](NC(=O)CCCCCCCCCCCCCCCCc2nnn[nH]2)C(=O)O)C(=O)O)CSSC[C@@H](C(=O)O)NC(=O)CNC(=O)[C@H](CC(C)C)NC(=O)CNC(=O)[C@H](CO)NC(=O)[C@H](CC(C)C)NC(=O)[C@H](CO)NC(=O)CNC1=O` [compound 1426] ({X1-γGlu-γGlu-AEEA-AEEA}-ARKYHGAQKSGLSQGCFGLPLDRIGSLSGLGC-OH; disulfide 16-32), the “hNPR2 0% HSA. [EC50% rel CNP]” value was 76.2%. The same measure, in the same setting: the result for `CC[C@H](C)[C@@H]1NC(=O)[C@H](CCCNC(=N)N)NC(=O)[C@H](CCC(=O)O)NC(=O)[C@H](CC(C)C)NC(=O)[C@@H]2CCCN2C(=O)[C@H](CC(C)C)NC(=O)CNC(=O)[C@H](Cc2ccccc2)NC(=O)[C@@H](NC(=O)CNC(=O)[C@H](CO)NC(=O)[C@H](CO)NC(=O)[C@H](CC(C)C)NC(=O)CNC(=O)[C@H](CCCCN)NC(=O)[C@H](CCCCN)NC(=O)[C@H](CCC(N)=O)NC(=O)[C@H](C)NC(=O)CNC(=O)[C@H](CCCCN)NC(=O)[C@H](Cc2ccc(O)cc2)NC(=O)[C@H](CCCCN)NC(=O)[C@H](CCCNC(=N)N)NC(=O)[C@H](C)NC(=O)[C@H](CCC(N)=O)NC(=O)[C@@H]2CCCN2C(=O)[C@H](Cc2c[nH]cn2)NC(=O)[C@H](CCC(=O)O)NC(=O)[C@H](CCC(N)=O)NC(=O)CC[C@H](NC(=O)CC[C@H](NC(=O)CC[C@H](NC(=O)CC[C@H](NC(=O)CCCCCCCCCCCCCCCCC(=O)O)C(=O)O)C(=O)O)C(=O)O)C(=O)O)CSSC[C@@H](C(=O)O)NC(=O)CNC(=O)[C@H](CC(C)C)NC(=O)CNC(=O)[C@H](CO)NC(=O)[C@H](CC(C)C)NC(=O)[C@H](CO)NC(=O)CNC1=O` [compound 9483] ({C18 diacid-γGlu-γGlu-γGlu-γGlu}-QEHPQARKYKGAQKKGLSSGCFGLPLERIGSLSGLGC-OH; disulfide 21-37) reads 10.2%.
